Source: patent US11767303B2, “Compounds and methods for inhibiting viral replication and methods of treating and preventing flaviviral infections” (priority 2020, dated 2023)
Where two headings read alike, the source gives them in different places.

Assays:
3D organoids = assay: Toxic effect on 3D organoids; type: cell-based, human; conditions: 1.5 μM
Excerpt: Culturing of human iPSCs. Human iPSC F11350.1 culture was maintained in feed-free conditions using mTeSR1 medium (StemCell Technologies #85851) with 5× supplement (StemCell Technologies #85852). Cells were maintained on six-well plates coated with human embryonic stem cell-qualified Matrigel at a 1:60 dilution (Corning Catalog #354277) and passaged with ReLeSR (StemCell Technologies #05872). Cortical 3D organoids were generated based on the protocol described by Yoon et al. Yoon et al., “Reliability of Human Cortical Organoid Generation,” Nat. Methods. […] Briefly, iPSCs were dissociated with accutase (ThermoFisher #A1110501) and then plated at a density of 3×10^6 cells per well in AggreWell 800 24-well plate (StemCell Technologies #34811) in Essential 8™ medium (ThermoFisher #A1517001) supplemented with 10 μM rock inhibitor (Tocris #Y27632). The plate was centrifuged at 100×g for 3 min and incubated at 37° C. overnight. […]
To evaluate if JMX0207 protects organoids from ZIKV infections, a full-length infectious ZIKV clone expressing Venus fluorescent protein (ZIKV-Venus) was first generated. […] ZIKV infection was quantified by a plaque forming unit (PFU) assay at 5 dpi and by fluorescence imaging at 7 dpi, respectively.

ZIKV [1] = assay: Time of addition experiment; type: cell-based, Zika virus; conditions: 0.75 μM added post-infection, titers at 48 hrs
Protocol: (§1) FIGS. 6A-6C show mechanism of action studies. […] Viral titers were quantified using plaque forming assay 48 hrs post-infection. DMSO was added to control. N=3. ***, p<0.001. […] N=3. […] Right, Band intensities of PP and NS3 normalized to the GAPDH control (N=3). […] Li et al., “Existing Drugs as Broad-Spectrum and Potent Inhibitors for Zika Virus by Targeting NS2B-NS3 Interaction,” Cell Res. 27:1046-1064 (2017), which is hereby incorporated by reference in its entirety. At 48 hrs post-infection, cells were washed, harvested, and protected by protease inhibitor cocktail prior to lysis by SDS-PAGE loading buffer. Upon incubation at 95° C. for 10 min, sample was subjected to Western blot analysis with anti-ZIKV NS3 (GTX133309, GeneTex, Inc.) and anti-GAPDH (CB1001, EMD Millipore) as primary antibodies. Error bars in all panels represent the standard deviations at each condition.
Antiviral inhibitors are generally divided into two categories, entry and post-entry (replication), respectively.

ZIKV [2] = assay: Viral titer reduction assay, ZIKV in A549 cells; type: cell-based, Zika virus; conditions: Zika virus
Protocol: Viral Titer Reduction Assay. A viral titer reduction assay was used to determine the compounds' effect on DENV2 and ZIKV strains, as described previously. […] Human A549 lung carcinoma cells and human primary neural progenitor cells were used, as described previously. […] All experiments were performed in triplicates.

ZIKV NS3 = assay: Western blot of ZIKV NS3 and polyprotein precursor in infected A549 cells; type: cell-based, Zika virus; conditions: MOI 0.1, 48 hrs
Protocol: as §1
Western Blot. Western blot was performed using anti-ZIKV NS3 (GTX133309, GeneTex, Inc.) and anti-GAPDH (CB1001, EMD Millipore) antibodies, as described previously. Li et al., “Existing Drugs as Broad-Spectrum and Potent Inhibitors for Zika Virus by Targeting NS2B-NS3 Interaction,” Cell Res. 27:1046-1064 (2017) and Brecher et al., “A Conformational Switch High-Throughput Screening Assay and Allosteric Inhibition of the Flavivirus NS2B-NS3 Protease,” PLoS Pathog. […]

Compound: O=C(Nc1ccc([N+](=O)[O-])cc1Cl)c1cccc([N+](=O)[O-])c1O [JMX0207, N-(2-Chloro-4-nitrophenyl)-2-hydroxy-3-nitrobenzamide]
- toxic effect on the 3D organoids (3D organoids): did not have any toxic effect
- reduction of ZIKV titer by time of addition (ZIKV [1]): equally effective in reducing ZIKV titer even at 24 hrs post-infection
- EC50 (ZIKV [2]; A549, read-out: EC50-ZK): 300 nM
- EC50 (ZIKV [2]; A549, read-out: EC50-ZK (A549)): 300 nM
- unprocessed viral polyprotein precursor (PP) (ZIKV NS3): dose-dependent increase of a protein with high molecular weight
- viral NS3 protein production (ZIKV NS3): dose-dependent reduction of viral NS3 protein production
